# From US6552079B2, “Integrin antagonists” (Eli Lilly and Company, priority 1996, dated 2003)
# Experiments:
# GPIIb-IIIa = molecular target: T1, GPIIb-IIIa (Homo sapiens, UniProt P05106+P08514); test: GPIIb-IIIa ELISA purified integrin binding assay (fibrinogen binding); details: inhibition of biotinylated fibrinogen binding to immobilized purified platelet GPIIb-IIIa; read-out: GPIIbIIIa ELISA (IC50 μM)
# T1 construct: Purified platelet GPIIb-IIIa was prepared by Fitzgerald, L. A., et al; from tissue; host or cells: platelets
# Experimental: (§1) In the following assays, GPIIb-IIIa and vitronectin receptor, αvβ3 were prepared in purified form, by methods described in Fitzgerald, L. A., et al., Anal Biochem (1985) 151: 169-177 and Smith, J. W., J. Biol Chem (1988) 263: 18726-18731 (the disclosure of which is incorporated herein by reference). GPIIb-IIIa or vitronectin receptor, αvβ3, are coated onto microtiter plates. The coated support is then contacted with fibrinogen for the GPIIb-IIIa assay, or is contacted with vitronectin for the vitronectin receptor, αvβ3 and with test materials and incubated for sufficient time to reach maximal ligand binding to immobilized integrins. The adhesive ligands fibrinogen or vitronectin were typically provided at a concentration of 2-50 nM and the test material can, if desired, be added at a series of diultions. […]
# (§2) The corresponding ligands (fibrinogen, von Willebrand Factor, or vitronectin) were conjugated to biotin using commercially available reagents and standard protocols. […] After incubation, the wells were aspirated to dryness and bound ligand containing biotin label was quantitated.
# (§3) The bound protein was detected by the addition of anti-biotin antibody conjugated to alkaline phosphatase followed by addition of substrate (p-nitrophenyl […] phosphate), and determination of the optical density of each well at […].
# [1] = molecular target: T2, vitronectin receptor, αvβ3 (Homo sapiens, UniProt P05106+P06756); test: αvβ3 ELISA purified integrin binding assay (vitronectin binding); details: inhibition of biotinylated vitronectin binding to immobilized purified αvβ3
# T2 construct: After purification, the receptors were each stored in 0.1% Triton X-100 at 0.1-1.0 mg/ml; from tissue
# Experimental: as §1, §2, §3
# [2] = test system: ADP-induced aggregation of human platelets (PRP); test: Platelet aggregation assay (Aggregation-Human/PRP/ADP); format: cell-based; details: human platelet rich plasma, ADP 20 μM
# Experimental: In addition to the ELISA integrin binding assays described above, the Aggregation-Human/PRP/ADP Assay is useful for evaluating therapeutic compounds.
# Platelet rich plasma (PRP) is prepared from healthy human volunteers for use in determining inhibition of platelet aggregation by compounds. Blood was collected via a 21 gauge butterfly cannula, using a two-syringe technique into 1/10 volume of […] trisodium citrate.
# Platelet rich plasma was prepared at room temperature by centrifugation of the citrated whole blood at 100×g for 15 minutes. The PRP contained approximately 200-400,000 platelets/μl. Platelet poor plasma was prepared by centrifugation of citrated whole blood at 12,000×g for 2 minutes.
# Platelet aggregation was assayed in a Chrono-log whole blood aggregometer (Chrono-log Corporation, Havertown, Pa.) using the PRP prepared above according to the manufacturers directions. Inhibition of platelet aggregation was studied by adding varying amounts of test materials followed by adenosine diphosphate (ADP, 20 μM) to stirred human PRP. Specifically, the human PRP was incubated with the compound for 1-2 min. at 37° C. prior to addition of the aggregating agent ADP.
# T1 sequence (P08514 32-887 limits assumed): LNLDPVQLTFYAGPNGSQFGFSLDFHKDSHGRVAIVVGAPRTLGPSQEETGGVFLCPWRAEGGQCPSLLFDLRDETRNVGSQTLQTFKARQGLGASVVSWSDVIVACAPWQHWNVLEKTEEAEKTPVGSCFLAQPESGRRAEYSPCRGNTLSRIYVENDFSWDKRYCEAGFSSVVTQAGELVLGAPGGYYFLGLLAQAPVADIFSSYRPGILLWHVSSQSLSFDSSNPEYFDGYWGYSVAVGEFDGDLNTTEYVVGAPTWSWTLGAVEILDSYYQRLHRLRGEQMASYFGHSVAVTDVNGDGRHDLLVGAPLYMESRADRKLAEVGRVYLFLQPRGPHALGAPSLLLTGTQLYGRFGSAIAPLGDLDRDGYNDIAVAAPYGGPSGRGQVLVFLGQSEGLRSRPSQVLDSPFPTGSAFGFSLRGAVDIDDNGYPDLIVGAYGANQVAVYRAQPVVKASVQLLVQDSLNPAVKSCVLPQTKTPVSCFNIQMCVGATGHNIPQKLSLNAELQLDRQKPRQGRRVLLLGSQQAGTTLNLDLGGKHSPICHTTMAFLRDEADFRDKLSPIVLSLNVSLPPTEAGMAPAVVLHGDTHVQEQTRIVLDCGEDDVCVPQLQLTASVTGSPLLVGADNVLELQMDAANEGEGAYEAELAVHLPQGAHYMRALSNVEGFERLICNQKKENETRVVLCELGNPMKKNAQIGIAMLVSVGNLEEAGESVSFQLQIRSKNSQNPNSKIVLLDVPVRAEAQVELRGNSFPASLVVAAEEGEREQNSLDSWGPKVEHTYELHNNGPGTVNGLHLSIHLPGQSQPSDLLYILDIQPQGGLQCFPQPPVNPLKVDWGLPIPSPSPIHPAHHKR
# T1 sequence (P08514 891-1039 partner limits assumed): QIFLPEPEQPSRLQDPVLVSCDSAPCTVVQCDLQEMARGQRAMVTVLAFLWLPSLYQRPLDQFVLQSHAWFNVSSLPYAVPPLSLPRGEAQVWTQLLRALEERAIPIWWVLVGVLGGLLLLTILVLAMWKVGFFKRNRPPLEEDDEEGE
# T1 sequence (P05106 27-788): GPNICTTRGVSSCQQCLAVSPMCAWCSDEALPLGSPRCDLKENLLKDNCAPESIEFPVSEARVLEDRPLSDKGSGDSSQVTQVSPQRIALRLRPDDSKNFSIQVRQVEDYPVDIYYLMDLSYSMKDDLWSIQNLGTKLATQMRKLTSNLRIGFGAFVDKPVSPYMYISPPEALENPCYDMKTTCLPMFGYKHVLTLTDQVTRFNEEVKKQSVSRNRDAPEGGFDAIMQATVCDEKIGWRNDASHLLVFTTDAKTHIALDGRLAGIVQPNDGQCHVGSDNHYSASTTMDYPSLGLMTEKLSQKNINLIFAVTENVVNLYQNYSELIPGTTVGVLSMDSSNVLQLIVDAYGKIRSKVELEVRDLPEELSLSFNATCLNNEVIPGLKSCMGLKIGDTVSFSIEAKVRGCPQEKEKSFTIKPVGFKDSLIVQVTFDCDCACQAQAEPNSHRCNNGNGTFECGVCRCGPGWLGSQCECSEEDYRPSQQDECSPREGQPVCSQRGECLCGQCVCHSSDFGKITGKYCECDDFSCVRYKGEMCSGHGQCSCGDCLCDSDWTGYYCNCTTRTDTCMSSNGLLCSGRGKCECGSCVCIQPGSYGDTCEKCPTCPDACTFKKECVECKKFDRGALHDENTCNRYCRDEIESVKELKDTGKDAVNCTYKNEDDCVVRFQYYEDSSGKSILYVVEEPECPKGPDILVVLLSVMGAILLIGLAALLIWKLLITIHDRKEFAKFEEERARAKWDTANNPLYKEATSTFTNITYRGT
# T2 sequence (P06756 31-889 limits assumed): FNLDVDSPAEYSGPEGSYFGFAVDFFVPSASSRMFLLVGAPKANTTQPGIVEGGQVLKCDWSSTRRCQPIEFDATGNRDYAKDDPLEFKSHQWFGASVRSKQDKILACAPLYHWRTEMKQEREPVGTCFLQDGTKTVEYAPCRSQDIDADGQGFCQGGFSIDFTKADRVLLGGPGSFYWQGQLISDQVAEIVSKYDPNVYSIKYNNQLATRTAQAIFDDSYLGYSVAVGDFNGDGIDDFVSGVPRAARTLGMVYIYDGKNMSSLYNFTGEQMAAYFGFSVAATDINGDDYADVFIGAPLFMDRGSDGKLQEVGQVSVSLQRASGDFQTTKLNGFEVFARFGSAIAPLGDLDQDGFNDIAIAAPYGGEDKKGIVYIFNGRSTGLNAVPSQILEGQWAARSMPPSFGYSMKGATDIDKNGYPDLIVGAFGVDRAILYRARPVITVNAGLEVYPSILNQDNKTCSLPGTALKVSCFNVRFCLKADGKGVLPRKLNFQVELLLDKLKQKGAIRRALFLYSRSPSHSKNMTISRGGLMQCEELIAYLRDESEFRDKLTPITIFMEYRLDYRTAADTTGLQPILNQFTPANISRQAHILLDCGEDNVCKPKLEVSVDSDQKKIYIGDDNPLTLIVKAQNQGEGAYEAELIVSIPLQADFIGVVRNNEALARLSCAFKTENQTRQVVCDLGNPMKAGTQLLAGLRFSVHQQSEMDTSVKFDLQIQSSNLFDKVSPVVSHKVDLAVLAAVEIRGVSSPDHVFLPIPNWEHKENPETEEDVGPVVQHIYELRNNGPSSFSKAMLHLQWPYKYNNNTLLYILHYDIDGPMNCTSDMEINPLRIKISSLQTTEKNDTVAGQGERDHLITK
# T2 sequence (P06756 891-1048 partner limits assumed): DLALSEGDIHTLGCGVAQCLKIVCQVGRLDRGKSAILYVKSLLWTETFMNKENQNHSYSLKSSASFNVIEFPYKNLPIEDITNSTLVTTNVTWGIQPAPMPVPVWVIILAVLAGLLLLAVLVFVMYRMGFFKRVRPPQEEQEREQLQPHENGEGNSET
# T2 sequence (P05106 27-788): as the sequence (P05106 27-788) above
smiles,measurement,setting,value
O=C(CNC(=O)C1CCNCC1)NCC(NS(=O)(=O)c1ccccc1)C(=O)O (stereo not drawn) [Compound 16],IC50,GPIIb-IIIa,5 µM
same,IC50,[1],> 100 µM
same,IC50,[2],49.3 µM
